Experimental data reported in US20240238417A1, “METHODS OF PRODUCING TUMOR VACCINES AND USES THEREOF” (priority 2021, published 2024).

Key:
4T1 cells = assay: Third inoculation with 4T1 breast cancer cells in a gNO-treated CT26 immunized mouse; type: in vivo; details: mouse treated with 25,000 ppm NO twice 15 minutes; third inoculation 30 days post the second
Experimental: Balb/c mouse was inoculated with 500,000 CT26 cells to the right flank. CT26 tumor was treated with 25,000 ppm NO for 15 minutes at a flow rate of 0.25 LPM. Seven days post gas treatment, this mouse was treated once again using the same protocol. Twelve days post the first NO treatment, this mouse was re-inoculated with 500,000 CT26 cells to the left flank. A third inoculation of cancer cells was performed 30 days post the second cell inoculation, using mouse breast cancer cells, was performed as well and the growth of a third inoculation of breast cancer cells, 4T1 cells. Forty-four days post challenge assay start (second inoculation), this mouse was sacrificed, and his spleen was harvested and preserved in RPMI-based media at 4° c. until processing of it. The spleen was processed into a sterile 35 mm culture dish containing 5 ml of RPMI-based media. Any extra connective tissues or fat was trimmed from the spleen. The flat end of a plunger was used to mince the spleen by crushing the spleen to release the splenocytes. A 70 μm strainer was primed by passing 1 ml of PBS through it and placed on a sterile 50 mL conical tube. The pellet was collected and transferred through the strainer via a 5 mL serological pipette. The strainer was washed with 3 mL of RPMI-based media. Tube will be centrifuged at 300×g for 10 minutes. […]

CT26 tumor = assay: Local gNO treatment of CT26 tumor bearing mice, primary tumor; type: in vivo
Experimental: Mice: All in vivo experimental procedures were carried out in accordance with the protocol approved by the Ethics Committee on the Use and Care of Animals. Institutional Animal Care and Use Committee (IACUC): 67-09-2019 and IL-20-3-149. The in vivo assays were performed on Balb/c or C57BU6J mice: 7-10 weeks of age, obtained from Envigo (Ness-Ziona, Israel), unless otherwise indicated.
Inoculation of tumor cells: Cancer cell suspensions at a concentration of 2.5-10.0×10^6 cells/ml were inoculated to the right flank of mice at a dose volume of 0.1 ml. Administration was performed as soon as possible following cell suspension preparation and after manual shaking prior to inoculation. The cell suspension was then aspirated into a 1-ml syringe with a 27G needle for subcutaneous (s.c.) injection.
Test article treatment: Mice were first anesthetized by an intraperitoneal (i.p) injection of 100 mg/kg ketamine and 20 mg/kg xylazine hydrochloride solution. After 10 minutes, tumor-bearing mice were treated with the indicated dose of gNO.
In all protocols, the gas was delivered from NO in N2 cylinders. The outlet pressure was set to 2-3.5 bar using a pressure regulator that was connected directly to the cylinder.
In protocols that involve administration by needle injection, a silicone hose was connected directly to the pressure regulator on one end and to a manual or digital MFC on the other end. The flow was adjusted to 0.05 LPM-0.25 LPM. An additional silicone hose was connected to the flow controller as well as to a 23G hypodermic needle. The needle was inserted horizontally into the center of each tumor.
Tumor volume calculation: Local tumor growth was determined by measuring 3 mutually orthogonal tumor dimensions 2-3 times per week, according to the following formula:
or Tumor volume=Diameter 1× Diameter 2^2/2, unless otherwise indicated. Diameter 1 represents length, Diameter 2 represents width and Diameter 3 represents height.
BALB/c female and male mice were obtained from Almog Diagnostic that purchased them from Envigo, Israel. The mice were 7-8 weeks of age. Animal care and experimentation were performed in accordance with the Bar-Ilan University guidelines.
CT-26, a colon carcinoma cell line was induced in a BALB/c mouse by chemical carcinogenesis.
Cells were cultured in Roswell Park Memorial Institute (RPMI) 1640 supplemented with 100 U/ml penicillin, 100 μg/ml streptomycin, 2 mM L-glutamine; 1 mM sodium pyruvate; 1% non-essential amino acid solution; 10% fetal calf serum. Cultures were maintained at 37° C. in a humidified incubator with a 5% CO2 atmosphere.
Mice were inoculated subcutaneously with 5×10^5 CT-26 cells suspended in 100 μL Hank's Balanced Salt Solution (HBSS) into the low lateral side of the back. Local tumor growth was determined by measuring two mutually orthogonal tumor diameters with a caliper. The volume of the tumor was calculated using the formula: Vol=D1×D2×D2/2, where D1, D2 are two mutually orthogonal tumor diameters.
Air-1 is a female Balb/c mouse that was treated twice. On day 0 the tumor volume was 64.85 mm^3.
NO-1 is a female Balb/c mouse and was treated once. […] Then, the skin was removed from the tumor, and the tumor was re-exposed to gNO via a perforated flask filled with gNO using the same parameters.
NO-2 is a male Balb/c mouse and was treated 3 times. On day 0 the tumor volume was 38.51 mm^3. Day 0—gNO at 50,000 ppm was administered for 3.8 minutes at a flow rate of 0.9 using a cap. Day 5: gNO at 10,000 ppm was administered for 30 minutes using a cap. Then, gNO was delivered intra-tumorally by a 23G needle such as shown in FIG. 11B at 0.3 LPM for another 10 minutes, using an intra-tumoral channel. The tip of the needle was directed at the outside area. Day 11: gNO at 10,000 ppm was delivered to the tumor for 5 minutes and at a flow rate of 0.3 LPM, using a 23G needle and an intra-tumoral channel.
In an additional set of experiments, aluminum disposable gas cylinders were used. […]

A549 cells = assay: XTT viability of A549 cells after direct gas exposure in 96-well plate; type: cell-based
Experimental: In vitro systems: One system involves a direct exposure of cancer cells to gNO in 96-well plate. Gaseous NO at 150 ppm-50,000 ppm was delivered at 0.3 LPM for 10 seconds—3 minutes. In another system, cancer cells were exposed to gNO in a box made of acrylic glass. Gaseous NO at 10,000-50,000 ppm was delivered at 0.9 LPM for 10 seconds—15 minutes.
The exposure of the cancer cells to gNO was done after removing the cell culture medium.
Immediately after gas exposure, cell culture medium was added, and the cells were incubated at a 37° C. and 5% CO2 incubator over-night. To test cell viability, XTT assay and Annexin V-Propidium Iodide assays were performed, according to known protocols.
A549 cells were prepared in RPMI medium and suspended in four 96-well plates. The wells were exposed to the gas by a tubing that was directed at each well for 10, 60 or 180 seconds. The diameter of the gas tubing used was about 25% of the diameter of each well. Three wells were used for each gas and exposure time. The plates were placed in a 5% CO2, 37° C. incubator for 15-18 hours and the viability of the cells was tested by XTT assay.

[N]=O [gNO, nitric oxide]
growth of a third inoculation of breast cancer cells (4T1) (4T1 cells): inhibited
CT-26 tumor destruction (CT26 tumor; 10,000 ppm gNO, 0.9 LPM, 20 minutes in flask, 1-17 days post treatment): 100%
tumor on photographs after treatment (CT26 tumor; 10,000 ppm gNO, 0.9 LPM, 20 minutes in flask, 1 minute, 9 days and 14 days post treatment): the tumor was destructed
cured mice (CT26 tumor; 25,000 ppm gNO intra-tumoral 15 minutes, 0.25 LPM, repeated a week later, 44 days post the first treatment): 50%
mice with CT-26 tumor growth inhibition compared to air treatment (CT26 tumor; 50,000 ppm intra-tumoral 2-3 minutes 0.2 LPM, then 10,000 ppm 6 minutes intra-tumoral and 4 minutes to outer layer): ⅔
tumor on photographs after treatment (CT26 tumor; 200,000 ppm gNO for 2 seconds, 0.01 LPM, 9 days after treatment): the tumor disappeared
size of air-treated tumor relative to gNO-treated tumors (CT26 tumor; CT26 tumors, 10,000-50,000 ppm gNO (mice NO-1, NO-2), 12 days post treatment 1): more than 30 times
viability of A549 cells (A549 cells; 4000, 10,000, or 50,000 ppm gNO for 10 seconds): 50%-84%
viability of A549 cells (A549 cells; 4000, 10,000, or 50,000 ppm gNO for 60 seconds): 65%-96%
viability of A549 cells (A549 cells; 4000, 10,000, or 50,000 ppm gNO for 180 seconds): 45%-62%
